Assays:
IL-6 = assay: Pro-inflammatory cytokine ELISA of colon tissue, IL-6; type: in vivo, mouse; details: for IL-6 in the colon tissue: Day 7
Experimental: (§1) In order to evaluate the clinical symptoms-improving efficacy in comparison with those by clinical prescription drugs, inflammatory bowel disease was induced by 7-day or repeated administration of 3% or 2.5% DSS solution, and tofacitinib 10 mg/kg, 5-ASA 100 mg/kg or 200 mg/kg, prednisolone 1 mg/kg, and TDCA 2.5 mg/kg were administered one time a day from the start date of DSS administration. From the start date of DSS administration, TDCA 2.5 mg/kg was administered one time a day (QD), two times a day (BID), and three times a day (TID).
(§2) A colon was obtained from a mouse which had been subjected to an experiment by the same method as that described in <Example 2>, the peripheral colon was cut into 2 cm in length and the weight was recorded. Next, the colon was chopped into 1 mm pieces and frozen on ice, treated with 500 μl of cold DPBS containing protease inhibitor (Roche, 11836170001, Basel, Switzerland), and homogenized for 10 to 20 seconds using an electric homogenizer (IKA T10 Basic, Wilmington, SE, USA). The homogenate was centrifuged at 4° C. for 10 minutes at 12,000×g to obtain a supernatant. ELISA analysis was performed using the obtained supernatant, IL-6 DuoSet ELISA kit (R & D systems, USA), IL-1β DuoSet ELISA kit (R & D systems, USA), and TNF-α DuoSet ELISA kit (R & D systems, USA) according to the manufacturer's procedure to confirm the production of pro-inflammatory cytokines.
(§3) Specifically, female C57BL/6 mice were fed with a 2% DSS solution together with drinking water for 7 days from Day 0 of the experiment by the same method as that described in <Example 1>, DPBS or 5 mg/kg TDCA was administered to the mice by oral gavage one time a day for 6 days from Day 1 of the experiment, and the body weight and DAI were measured daily. As a control, mice freely fed with drinking water were used. Next, the mice were sacrificed on Day 7 of the experiment by the same method as that described in <Example 3>, and inflammatory cell and proinflammatory cytokine analysis was performed.
as §3, with “oral gavage from Day” for “oral gavage one time a day for 6 days from Day”, “1 of DSS administration or 2 days before DSS administration, and the” for “1 of the experiment, and the”, “3>, and the inflammatory cell” for “3>, and inflammatory cell”

IL-1β = assay: Pro-inflammatory cytokine ELISA of colon tissue, IL-1β; type: in vivo, mouse; details: for IL-1β in the colon tissue: Day 7
Experimental: as §1, §2, §3
as §3, with “oral gavage from Day” for “oral gavage one time a day for 6 days from Day”, “1 of DSS administration or 2 days before DSS administration, and the” for “1 of the experiment, and the”, “3>, and the inflammatory cell” for “3>, and inflammatory cell”

[1] = tested on: chronic inflammatory bowel disease model induced with 2.5% DSS; assay: Chronic inflammatory bowel disease model, repeated 2.5% DSS, comparison with clinical prescription drugs; type: in vivo, mouse
Experimental: as §1

[2] = tested on: inflammatory bowel disease induced by 3% DSS administration for 7 days; assay: 3% DSS 7-day inflammatory bowel disease model, comparison with clinical prescription drugs; type: in vivo, mouse; details: 3% DSS 7 days
Experimental: as §1
The disease activity indexes (DAI) including body weight, body weight loss, stool consistency, and bloody stool were measured daily. DAI was scored according to the following [Table 1].
After the experiment was completed, the mice were euthanized with CO2 and the bowels were excised. Next, the bowels were put in cold 1×DPBS and the remaining mesenteric adipose tissue was isolated. At this time, the colon length was measured. Next, the tail end of the colon was opened and wound up with scissors to obtain colon tissue. The obtained colon tissue was fixed in 10% neutral buffered formalin (Sigma-Aldrich, HT501128-4L, St. Louis, Mo., USA) at room temperature for 48 hours and then treated in a tissue processor (Excelsior ES, Thermo scientific, Waltham, Mass., USA) for 12 hours. The processed tissue was sectioned and paraffinized using a microtome (Microm, HM 340E, Thermo Scientific, Waltham, Mass., USA) and an embedding system (HistoStar, Thermo Scientific, Waltham, Mass., USA). Next, the processed tissue was stained with hematoxylin and eosin, and visualized under an optical microscope (Motic, BA310, Redding, Calif., USA) to confirm the histopathological state, and the histopathological state was scored to histological score according to the criteria in the following [Table 2].

TNF-α = assay: Pro-inflammatory cytokine ELISA of colon tissue, TNF-α; type: in vivo, mouse; details: for TNF-α in the colon tissue: Day 7, FIG. 7B
Experimental: as §1, §2
as §3, with “oral gavage from Day” for “oral gavage one time a day for 6 days from Day”, “1 of DSS administration or 2 days before DSS administration, and the” for “1 of the experiment, and the”, “3>, and the inflammatory cell” for “3>, and inflammatory cell”

[3] = tested on: inflammasome activity of bone marrow-derived macrophages; assay: Inhibition of IL-1β secretion of bone marrow-derived macrophages (LPS then ATP or BzATP); type: cell-based; details: Mus musculus, Macrophage, LPS 10 ng/ml 3 h, TDCA 1 h, ATP 0.5 mM or BzATP 0.3 mM 1 h, FIGS. 10A and 10B
Experimental: Bone marrow was collected from a DPBS-administered mouse which had been subjected to an experiment by the same method as that described in <Example 2>, induced to differentiate into macrophages, then pretreated with LPS (10 ng/ml) for 3 hours so as to be 4×10^4 cells in a 96-well plate, treated with TDCA at various concentrations for 1 hour, then treated with ATP (0.5 mM) or BzATP (0.3 mM) for an additional 1 hour, and cultured, and the amount of IL-1β in the cell culture was measured and analyzed using an ELISA kit (R & D systems, USA) according to the manufacturer's procedure.

[4] = 2% DSS 7 days, 5 mg/kg TDCA oral gavage, FIG. 3B
[5] = 3% DSS 7 days, TDCA 2.5 mg/kg vs tofacitinib 10 mg/kg and 5-ASA 100 mg/kg
[6] = DSS+TDCA group: 5 mg/kg TDCA from Day 1 of DSS, FIG. 7B
[7] = DSS+preTDCA group: 5 mg/kg TDCA from 2 days before DSS, FIG. 7B

C[C@H](CCC(=O)NCCS(=O)(=O)O)[C@H]1CC[C@H]2[C@@H]3CC[C@@H]4C[C@H](O)CC[C@]4(C)[C@H]3C[C@H](O)[C@]12C [TDCA, sodium taurodeoxycholic acid]
IL-6 in the colon tissue (IL-6; [4]): decreased
concentration of IL-6 in the colon tissue, compared with clinical prescription drugs (IL-6; [5]): equivalent to those by tofacitinib 10 mg/kg and 5-ASA 100 mg/kg
IL-6 in the colon tissue (IL-6; [6]): decreased
IL-6 in the colon tissue (IL-6; [7]): decreased
IL-1β in the colon tissue (IL-1β; [4]): decreased
concentration of IL-1β in the colon tissue, compared with clinical prescription drugs (IL-1β; [5]): more effectively suppressed the concentration of IL-1β than tofacitinib 10 mg/kg and 5-ASA 100 mg/kg
IL-1β in the colon tissue (IL-1β; [6]): decreased
IL-1β in the colon tissue (IL-1β; [7]): decreased
body weight change, compared with clinical prescription drugs ([1]; TDCA 2.5 mg/kg QD, BID and TID vs tofacitinib 10 mg/kg and 5-ASA 200 mg/kg, FIG. 11A): effect equivalent to or higher than those by tofacitinib 10 mg/kg and 5-ASA 200 mg/kg
mortality, compared with clinical prescription drugs ([1]; TDCA 2.5 mg/kg, FIG. 11B): effect equivalent to or higher than those by clinical prescription drugs
body weight change, compared with clinical prescription drugs ([2]; TDCA 2.5 mg/kg one time a day vs tofacitinib 10 mg/kg and 5-ASA 100 mg/kg, FIG. 9A): effect equivalent to those by tofacitinib 10 mg/kg and 5-ASA 100 mg/kg
DAI change, compared with clinical prescription drugs ([2]; TDCA 2.5 mg/kg one time a day vs tofacitinib 10 mg/kg and 5-ASA 100 mg/kg, FIG. 9B): effect equivalent to those by tofacitinib 10 mg/kg and 5-ASA 100 mg/kg
colon length, compared with clinical prescription drugs ([2]; TDCA 2.5 mg/kg vs tofacitinib 10 mg/kg and 5-ASA 100 mg/kg, FIG. 9C): effect equivalent to those by tofacitinib 10 mg/kg and 5-ASA 100 mg/kg
histological lesion index, compared with clinical prescription drugs ([2]; TDCA 2.5 mg/kg vs tofacitinib 10 mg/kg and 5-ASA 100 mg/kg, FIG. 9D): effect equivalent to those by tofacitinib 10 mg/kg and 5-ASA 100 mg/kg
concentration of TNF-α in the colon tissue, compared with clinical prescription drugs (TNF-α; [5]): equivalent to those by tofacitinib 10 mg/kg and 5-ASA 100 mg/kg
TNF-α in the colon tissue (TNF-α; DSS+TDCA group: 5 mg/kg TDCA from Day 1 of DSS): decreased
TNF-α in the colon tissue (TNF-α; DSS+preTDCA group: 5 mg/kg TDCA from 2 days before DSS): decreased
IC50 [3]: 60 to 90 nM

Reference: patent publication US20210386761A1, “COMPOSITION FOR PREVENTING OR TREATING INFLAMMATORY BOWEL DISEASE, CONTAINING, AS ACTIVE INGREDIENT, TAURODEOXYCHOLIC ACID OR PHARMACEUTICALLY ACCEPTABLE SALT THEREOF” (SHAPERON INC., priority 2019, published 2021)
